{
  "source": "patent US12011441B2",
  "about": "“Pimobendan for the reduction of heart size and/or the delay of onset of clinical symptoms in patients with asymptomatic heart failure due to mitral valve disease” (Boehringer Ingelheim Vetmedica GmbH, priority 2016, dated 2024)",
  "test_system": "dogs with MMVD and echocardiographic and radiographic evidence of cardiomegaly",
  "description": "Vertebral heart sum, another measure of heart size, was obtained at regular intervals—every eight months—from those animals that remained in the study. There are various ways in which this can be compared between groups. The most useful way to summarise and compare the average vertebral heart score in each group for the duration of the study is to generate an “area under the curve” value that represents a single summary statistic for each dog from which more than two measurements were obtained [Matthews J N et al., BMJ 1990, 300(6719): 230-235]. This method has been used previously in veterinary studies [Häggström J et al., J Vet Intern Med 2013, 27(6): 1441-1451].",
  "data": [
    {"smiles": "COc1ccc(-c2nc3ccc(C4=NNC(=O)CC4C)cc3[nH]2)cc1", "note": "(centres unmarked) [pimobendan, 4,5-dihydro-6-[2-(4-methoxyphenyl)-1H-benzimidazol-5-yl]-5-methyl-3(2H)-pyridazinone]", "values": [
      {"measurement": "VHS Median", "setting": "average vertebral heart score over the duration of the study, placebo 11.90, P = 0.0009", "result": 11.54},
      {"measurement": "difference in median vertebral heart score vs placebo", "setting": "averaged over the entire duration of the study (area under the curve), dogs remaining in the study", "result": "approximately 0.35 vertebrae"},
      {"measurement": "rate or type of potential adverse events observed", "setting": "dog, in vivo", "result": "no difference between groups"},
      {"measurement": "safety and tolerability", "setting": "dog, in vivo", "result": "safe and well tolerated"},
      {"measurement": "heart size compared to the placebo group", "setting": "measured over the first 35 days of the study, P<0.0001", "result": "reduction in heart size"}
    ]}
  ]
}
